Measurements taken from US8313934B2, “Reduction of the toxic effect of impurities from raw materials by extractive fermentation” (LS9, Inc., priority 2007, dated 2012).

Assays:
[1] = test system: LS9-ID1; test: Extractive fermentation with toxin, with or without hydrophobic solvent: cell growth (OD600); type: cell-based, E. coli; conditions: for % Growth With C1:C12: methyl laureate as solvent; for % Growth With Hexadecane: hexadecane as solvent; for % Growth With Eicosadecene: eicosadecene as solvent; for % Growth With Biodiesel: commercial biodiesel as solvent
Method: Two sets of duplicate flasks were prepared with different concentrations of the toxin to be tested. One set served as the control, which included the toxin without the extractant, the hydrophobic solvent. In the second set, the extractant was added in a ratio of 1 volume of solvent per 3 volumes of fermentation broth. The flasks were then inoculated and incubated at 37° C. in agitated shakers. When the OD 600 reached a value of 1, the cultures were induced by the addition of 1 mM IPTG and 20 ml/L methanol. Cell growth and production of fatty acids methyl esters (FAME) was measured at 24 hours. In cultures without hydrophobic solvents (control), OD was measured directly in the fermentation broth. […] The OD was measured in this suspension.
(§1) To analyze FAME production, 0.5 ml of broth was well mixed with 0.5 ml of ethylacetate. The organic phase was analyzed by gas chromatography. In the samples with solvents, additional dilutions were applied. All the toxins were tested with ethyl oleate (C2:C18 ester, or C2:C18) as a solvent representative of a biodiesel. Growth and FAME production are reported as percentage of the control condition (no toxin added). Each result is the average of duplicate experiments.
The solvents methyl laureate (C1:C12 ester, or C1:C12), hexadecane (an alkane), eicosadecene (an alkene) and commercial biodiesel were tested.

[2] = test system: E. coli; conditions: minimal inhibitory concentration that completely inhibits growth, as reported in the literature; cited from earlier work
[3] = test system: LS9-ID1; test: Effect of common toxins on growth of the production strain (shake flasks, OD); type: cell-based, E. coli; conditions: for % Inhibition for LS9-ID1: toxin added at the reported MIC, growth by OD vs control without toxin
Method: A culture of a genetically engineered strain of E. coli, LS9-ID1, was transferred from a frozen stock and incubated in Luria-Bertani broth for approximately three hours. The culture was transferred to a defined mineral medium commonly used for E. coli, M9, buffered and supplemented with thiamine and trace minerals. The culture was further incubated and used to inoculate the same fermentation media with 50 g/L of carbohydrate (glucose, fructose, some pentoses).
The toxicity towards microbial strains of many of the compounds in hemicelluloses and cellulose hydrolysates has been examined individually. In the case of E. coli, the toxicity is related to the hydrophobicity of the toxin. The effects of several of these compounds on the growth of certain microbial strains were evaluated. The tests were done in shake flasks by following a protocol similar to that described in example 1, above, but without the induction and the addition of alcohols.
Other concentrations were also tested to determine the range where the effect was observed. The inhibition level was reported as the ratio between growth in the absence of the toxin (control) minus growth in the presence of the toxin and growth in the control.

[4] = test system: LS9-ID1; test: Extractive fermentation with toxin, with or without hydrophobic solvent: FAME production (GC); type: cell-based, E. coli; conditions: 24 h, % of no-toxin control; for % FAME titer With C2:C18: ethyl oleate 1:3
Method: The production of fatty acid methyl and ethyl esters was analyzed by gas chromatography with flame ionization detector (GC-FID). The samples from fermentation broth were extracted with ethyl acetate in a ratio of 1:1 vol/vol. After strong vortexing, the samples were centrifuged and the organic phase was analyzed by gas chromatography (GC). The analysis conditions were as follows: instrument: Trace GC Ultra, Thermo Electron Corporation with Flame ionization detector (FID) detector; column: DB-1 (1% diphenyl siloxane; 99% dimethyl siloxane) CO1 UFM 1/0.1/5 01 DET from Thermo Electron Corporation, phase pH 5, FT: 0.4 μm, length 5 m, id: 0.1 mm; inlet conditions: 250° C. splitless, 3.8 min 1/25 split method used depending upon sample concentration with split flow of 75 ml/min; carrier gas, flow rate: Helium, 3.0 ml/min; block temperature: 330° C.; oven temperature: 0.5 minute hold at 50° C.; 100° C./minute to 330° C., 0.5 minute hold at 330° C.; detector temperature: 300° C.; injection volume: 2 μL; run time/flow rate: 6.3 min/3.0 ml/min (splitless method), 3.8 min/1.5 ml/min (split 1/25 method), 3.04 min/1.2 ml/min (split 1/50 method).
To determine the ability to perform extractive fermentations using products generated by the engineered strain of E. coli, LS9-ID1, to improve the performance of the fermentation in the presence of toxins, the fermentations were performed using a protocol similar to that described in example 1, above. Two sets of duplicate flasks were prepared with different concentrations of the toxin to be tested. One set served as the control, which included the toxin without the extractant, the hydrophobic solvent. In the second set, the extractant was added in a ratio of 1 volume of solvent per 3 volumes of fermentation broth. The flasks were then inoculated and incubated at 37° C. in agitated shakers. When the OD 600 reached a value of 1, the cultures were induced by the addition of 1 mM IPTG and 20 ml/L methanol. Cell growth and production of fatty acids methyl esters (FAME) was measured at 24 hours. In cultures without hydrophobic solvents (control), OD was measured directly in the fermentation broth. In flasks with solvent there was interference in OD measurement, and to eliminate this problem, the broth was centrifuged and the cell pellet was resuspended in the same volume of distilled water. The OD was measured in this suspension.
as §1

[5] = test system: LS9-ID1; test: Solvent pretreatment of toxin-spiked media before fermentation: cell growth; type: cell-based, E. coli; conditions: Table 12, toxin 1.5 g/L; for % Growth With Pretreatment: media extracted with methyl laureate 1:3 vol:vol, 37° C., 60 minutes, before inoculation; for % Growth No solvent: untreated media
Excerpt: The raw materials can be treated to remove the toxin prior to the fermentation. For this purpose it will be possible to use the bioproduct after the initial steps of purification (centrifugal separation for example) but prior to any polishing or finishing step. The sugar containing raw material can be placed in contact with the solvent in a batch or in a continuous counter current mode. After extraction, the raw material (aqueous phase) can be separated from the solvent by decantation or centrifugation.
Tests were performed similarly to that described in the above Examples. Fermentation media was prepared and spiked with the desired concentration of the toxin. Methyl laureate was used as a solvent representative of biodiesel. It was added to the fermentation media in a 1:3 vol:vol ratio. Solvent and broth were thoroughly mixed at 37° C. for 60 minutes. The aqueous layer was decanted in a separatory funnel and collected. The resulting media was then inoculated with LS9-ID1 and growth was compared against similar media containing the toxin but which had not been treated.

[6] = toxin 1.5 g/L, ethyl oleate 1:3 vol solvent:broth, 24 h, % of no-toxin control
[7] = toxin 1.5 g/L, 24 h, % of no-toxin control (Tables 3-7)
[8] = toxin 3.0 g/L, ethyl oleate 1:3, 24 h, % of no-toxin control
[9] = toxin 3.0 g/L, 24 h, % of no-toxin control (Tables 3-7)

Compound | % Growth With Hexadecane ([1]; Table 9, toxin 1.5 g/L) [%] | % Growth No solvent ([1]; Table 9, toxin 1.5 g/L) [%] | % Growth With Eicosadecene ([1]; Table 10, toxin 1.5 g/L) [%] | % Growth No solvent ([1]; Table 10, toxin 1.5 g/L) [%] | % Growth With Biodiesel ([1]; Table 11, toxin 1.5 g/L) [%] | % Growth No solvent ([1]; Table 11, toxin 1.5 g/L) [%] | % Growth With C2:C18 [1, 6] [%] | % Growth No solvent [1, 7] [%] | % Growth With C2:C18 [1, 8] [%] | % Growth No solvent [1, 9] [%] | Reported MIC [2] [µg/mL] | % of Growth inhibition ([3]; toxin 1.00 g/L) [%] | % of Growth inhibition ([3]; toxin 1.50 g/L) [%] | % of Growth inhibition ([3]; toxin 3.00 g/L) [%] | % Inhibition for LS9-ID1 [3] [%] | % FAME titer With C2:C18 ([4]; toxin 1.5 g/L) [%] | % FAME titer No solvent ([4]; toxin 1.5 g/L) [%] | % FAME titer With C2:C18 ([4]; toxin 3.0 g/L) [%] | % FAME titer No solvent ([4]; toxin 3.0 g/L) [%] | % Growth With Pretreatment [5] [%] | also measured
O=Cc1ccco1 [Furfural] | 38.5 | 17.7 | 56.7 | 33.3 | 49.7 | 33.3 | 71.9 | 40.0 | 53.6 | 21.5 | 3500 | 0 | 60.0 | 18.5 | 100 | 72.7 | 35.5 | 43.2 | 4.5 | 69.6 | % Growth With C1:C12 ([1]; Table 8, toxin 3.0 g/L): 16.7%; % Growth No solvent ([1]; Table 8, toxin 3.0 g/L): 6.1%; % Growth No solvent [5]: 33.3%
O=Cc1ccc(O)cc1 [4-hydroxybenzaldehyde] | 53.8 | 6.2 | 11.2 | 9.6 | – | – | – | – | – | – | 1250 | – | – | – | 100 | – | – | – | – | – | % Growth With C1:C12 ([1]; Table 8, toxin 1.5 g/L): 33.0%; % Growth No solvent ([1]; Table 8, toxin 1.5 g/L): 20.2%; % Growth With C2:C18 ([1]; toxin 0.63 g/L, ethyl oleate 1:3, 24 h, % of no-toxin control): 68.0%; % Growth No solvent ([1]; toxin 0.63 g/L, 24 h, % of no-toxin control): 70.0%; % Growth With C2:C18 ([1]; toxin 1.25 g/L, ethyl oleate 1:3, 24 h, % of no-toxin control): 60.0%; % Growth No solvent ([1]; toxin 1.25 g/L, 24 h, % of no-toxin control): 45.0%; % FAME titer With C2:C18 ([4]; toxin 0.63 g/L): 72.6%; % FAME titer No solvent ([4]; toxin 0.63 g/L): 54.3%; % FAME titer With C2:C18 ([4]; toxin 1.25 g/L): 31.8%; % FAME titer No solvent ([4]; toxin 1.25 g/L): 18.1%
COc1ccccc1O [Guaiacol] | 41.8 | 12.7 | 31.8 | 15.8 | – | – | 93.7 | 30.4 | 65.1 | 12.5 | 3000 | 0 | 41.7 | 100 | 100 | 100.5 | 10.2 | 76.2 | 2.3 | – | % Growth With C1:C12 ([1]; Table 8, toxin 1.5 g/L): 88.6%; % Growth No solvent ([1]; Table 8, toxin 1.5 g/L): 18.3%; % of Growth inhibition ([3]; toxin 2.00 g/L): 83.3%
O=Cc1ccc(CO)o1 [5-Hydroxymethylfurfural] | – | – | – | – | – | – | – | – | – | – | 4000 | – | – | – | 100 | – | – | – | – | – | % Growth With Hexadecane ([1]; Table 9, toxin 2.0 g/L): 57.1%; % Growth No solvent ([1]; Table 9, toxin 2.0 g/L): 39.8%; % Growth With Eicosadecene ([1]; Table 10, toxin 2.0 g/L): 55.3%; % Growth No solvent ([1]; Table 10, toxin 2.0 g/L): 51.8%; % Growth With C2:C18 ([1]; toxin 4.0 g/L, ethyl oleate 1:3, 24 h, % of no-toxin control): 20.9%; % Growth No solvent ([1]; toxin 4.0 g/L, 24 h, % of no-toxin control): 4.7%; % Growth With C2:C18 ([1]; toxin 8.0 g/L, ethyl oleate 1:3, 24 h, % of no-toxin control): 9.1%; % Growth No solvent ([1]; toxin 8.0 g/L, 24 h, % of no-toxin control): 2.2%
COc1cc(C=O)cc(OC)c1O [Syringaldehyde] | 40.7 | 19.5 | 48.2 | 8.8 | 39.2 | 8.8 | 41.0 | 34.4 | 14.8 | 6.6 | 2500 | – | – | – | 100 | 94.8 | 16.2 | 92.7 | 2.0 | 83.3 | % Growth With Co-treatment ([5]; co-treatment): 61.2%; % Growth No solvent [5]: 8.8%
Cc1ccc(O)c(O)c1 [4-Methyl catechol] | – | – | – | – | – | – | – | – | – | – | 1500 | – | – | – | 25 | – | – | – | – | – | –
